According to publication PMC5715595 (British Journal of Pharmacology, 2017):
Like-named read-outs stand apart in the source and are kept apart here.

Key:
KV7.1/mink = molecular target: T1, KV7.1/mink (Homo sapiens, UniProt P51787); test: Whole-cell patch clamp on KV7.1/mink (IKs); format: cell-based
T1 construct: expressed in transfected cells
Procedure: (§1) and CiPA Initiative Studies
(§2) =============================================================
(§3) In vitro studies on other ion channels […]
(§4) through NaV1.5, KV4.3, KV7.1/mink, Kir2.1, KV1.5, CaV1.2 and CaV3.2 channels.
(§5) 35-mm dish culture in the conditions mentioned in standard cell culture conditions. Experiments were performed with a cell density enabling isolated cells for patch clamping. Cells were continuously superfused with extracellular medium (1-2 mL∙minute-1) at room temperature.
(§6) D-glucose 10, HEPES 10 and the final pH adjusted to 7.4±0.02 with NaOH for recording NaV1.5, KV4.3, KV7.1/mink, Kir2.1, KV1.5 and CaV3.2 currents. It was (in mM): NaCl 110, KCl 4, BaCl2 20, MgCl2 1, D-glucose 20, HEPES 10 and the final pH adjusted to 7.4 ± 0.02 with NaOH for recording the CaV1.2 current. Compositions of the intracellular solution to fill the pipette are […]
(§7) Composition of intracellular solutions used to fill pipette to record currents through NaV1.5, KV4.3, KV7.1/mink, Kir2.1, KV1.5, CaV1.2 and CaV3.2 channels
(§8) Solution to fill the pipette (mM)
(§9) Creatine-phospho kinase 50 U∙mL-1
(§10) After formation of a Gigaohm seal between the patch electrodes and individual cells (pipette resistance range: 2.0 MΩ - 7.0 MΩ; seal resistance range: > 1 GΩ) the cell membrane across the pipette tip was ruptured to assure electrical access to the cell interior (whole-cell patch-configuration). In case the quality of the seal was poor, the process of seal formation was repeated with a different cell and a new pipette. As soon as a stable seal was established outward tail currents were measured upon pulses described in the Table S2. If current density was judged to be too low for measurement, another cell was recorded. […]
(§11) voltage stimulation protocol indicated in the next table continuously run until the steady-state level of block was reached.
(§12) Stimulation conditions used to record currents through NaV1.5, KV4.3, KV7.1/mink, Kir2.1, KV1.5, CaV1.2 and CaV3.2 channels
(§13) Ion channel Holding potential Pulse / duration Frequency Reference compound […]
(§14) (resting / fast / slow sweeps at one (10 mM) inactivated concentration)

CaV3.2 = molecular target: T2, CaV3.2 (Homo sapiens, UniProt O95180); test: Whole-cell patch clamp on CaV3.2 (ICaT); format: cell-based
T2 construct: expressed in transfected cells
Procedure: as §1, §2, §3, §4, §5, §6, §7, §8, §9, §10, §11, §12, §13, §14

humans = conditions: human, ref Shah et al., 2016, cited from earlier work

T2 sequence (O95180 whole entry): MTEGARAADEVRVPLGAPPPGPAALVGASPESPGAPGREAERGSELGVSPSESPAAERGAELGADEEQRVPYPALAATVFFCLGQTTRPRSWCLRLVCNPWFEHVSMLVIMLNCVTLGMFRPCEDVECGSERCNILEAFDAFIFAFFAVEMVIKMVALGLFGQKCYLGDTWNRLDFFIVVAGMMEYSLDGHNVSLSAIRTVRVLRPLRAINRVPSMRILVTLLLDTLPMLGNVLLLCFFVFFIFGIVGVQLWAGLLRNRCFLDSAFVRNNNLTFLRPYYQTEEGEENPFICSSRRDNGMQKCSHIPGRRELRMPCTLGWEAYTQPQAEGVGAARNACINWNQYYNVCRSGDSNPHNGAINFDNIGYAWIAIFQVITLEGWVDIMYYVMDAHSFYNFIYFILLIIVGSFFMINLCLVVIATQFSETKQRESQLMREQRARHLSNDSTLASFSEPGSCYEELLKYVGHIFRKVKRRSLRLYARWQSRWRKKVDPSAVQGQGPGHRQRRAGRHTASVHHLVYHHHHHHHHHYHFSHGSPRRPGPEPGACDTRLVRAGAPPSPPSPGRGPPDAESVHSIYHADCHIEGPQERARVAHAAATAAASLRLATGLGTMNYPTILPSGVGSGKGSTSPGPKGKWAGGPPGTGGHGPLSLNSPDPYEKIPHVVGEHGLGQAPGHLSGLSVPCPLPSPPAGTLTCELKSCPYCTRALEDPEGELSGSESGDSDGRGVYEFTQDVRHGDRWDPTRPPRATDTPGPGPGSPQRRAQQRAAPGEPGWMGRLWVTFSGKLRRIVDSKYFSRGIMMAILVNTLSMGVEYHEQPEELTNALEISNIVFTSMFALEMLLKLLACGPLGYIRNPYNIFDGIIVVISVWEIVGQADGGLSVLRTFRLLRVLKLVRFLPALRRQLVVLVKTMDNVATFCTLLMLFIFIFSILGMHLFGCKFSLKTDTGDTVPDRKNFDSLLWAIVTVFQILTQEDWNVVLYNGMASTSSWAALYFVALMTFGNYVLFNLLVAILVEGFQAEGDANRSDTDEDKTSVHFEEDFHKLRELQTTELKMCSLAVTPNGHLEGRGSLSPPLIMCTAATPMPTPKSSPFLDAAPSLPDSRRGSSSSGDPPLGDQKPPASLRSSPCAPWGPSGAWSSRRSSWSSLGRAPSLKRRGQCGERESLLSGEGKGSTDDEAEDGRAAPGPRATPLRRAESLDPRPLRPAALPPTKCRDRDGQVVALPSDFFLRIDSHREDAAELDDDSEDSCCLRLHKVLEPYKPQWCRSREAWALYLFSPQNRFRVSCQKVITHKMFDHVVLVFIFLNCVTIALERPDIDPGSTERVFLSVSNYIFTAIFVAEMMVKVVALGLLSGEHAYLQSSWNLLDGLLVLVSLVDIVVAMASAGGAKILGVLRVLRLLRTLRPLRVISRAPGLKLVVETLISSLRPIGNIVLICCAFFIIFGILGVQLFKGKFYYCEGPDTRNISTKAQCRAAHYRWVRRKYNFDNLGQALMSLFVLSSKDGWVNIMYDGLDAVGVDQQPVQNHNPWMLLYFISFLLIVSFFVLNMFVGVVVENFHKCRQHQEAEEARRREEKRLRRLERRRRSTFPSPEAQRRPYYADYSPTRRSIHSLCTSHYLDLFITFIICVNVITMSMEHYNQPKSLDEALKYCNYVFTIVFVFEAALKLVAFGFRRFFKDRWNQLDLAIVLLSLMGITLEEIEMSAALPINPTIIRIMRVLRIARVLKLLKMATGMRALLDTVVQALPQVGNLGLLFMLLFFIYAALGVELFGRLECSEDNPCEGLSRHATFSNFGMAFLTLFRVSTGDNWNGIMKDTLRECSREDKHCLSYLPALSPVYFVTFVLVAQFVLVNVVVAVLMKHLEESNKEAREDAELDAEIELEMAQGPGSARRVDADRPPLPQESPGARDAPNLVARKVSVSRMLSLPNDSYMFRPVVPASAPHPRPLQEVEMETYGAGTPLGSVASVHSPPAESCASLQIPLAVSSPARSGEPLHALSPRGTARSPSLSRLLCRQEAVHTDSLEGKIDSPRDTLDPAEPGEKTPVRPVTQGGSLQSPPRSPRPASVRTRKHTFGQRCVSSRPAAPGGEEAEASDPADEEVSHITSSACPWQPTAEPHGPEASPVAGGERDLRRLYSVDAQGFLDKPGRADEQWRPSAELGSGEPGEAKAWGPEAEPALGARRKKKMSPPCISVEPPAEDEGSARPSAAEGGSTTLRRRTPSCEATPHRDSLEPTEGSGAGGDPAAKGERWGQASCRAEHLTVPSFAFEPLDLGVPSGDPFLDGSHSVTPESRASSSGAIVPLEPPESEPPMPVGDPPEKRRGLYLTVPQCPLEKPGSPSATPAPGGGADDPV

In the case of `Cl.Clc1ccc(CCCOCCCN2CCCCC2)cc1` [pitolisant, 1‐{3‐[3‐(4‐chlorophenyl)propoxy]propyl}piperidine, hydrochloride], the “Fitted IC50” value (KV7.1/mink; KV7.1/mink IKs, Hill curve fit with Hill coefficient of one) is reported as “No effect”, the IC50 (KV7.1/mink; KV7.1/mink, IKs) is reported as over 10 µM and the IC50 (CaV3.2; CaV3.2 ICaT, Hill curve fit with Hill coefficient of one, read-out: Fitted IC50) is reported as 25.7 µM. The IC50 (CaV3.2; Pitolisant IC50, CaV3.2, ICaT) was at least 10 µM, the “maximum mean (90% CI) placebo-corrected increase in QTcF interval from baseline (ΔΔQTcF)” value (humans; 40 mg pitolisant hydrochloride, TQT study) was 3.29 (0.35, 6.23) ms and the Cmax (humans; 40 mg) was 0.053 ± 0.027 µg/mL. For the same compound, the “maximum mean (90% CI) placebo-corrected increase in QTcF interval from baseline (ΔΔQTcF)” value (humans; 120 mg pitolisant hydrochloride, TQT study) was 5.27 (2.35, 8.20) ms, the Cmax (humans; 120 mg) was 0.164 ± 0.063 µg/mL and the “maximum mean (90% CI) placebo-corrected increase in QTcF interval from baseline (ΔΔQTcF)” value (humans; 200 mg pitolisant hydrochloride, SAD study) was 13.3 (8.1, 18.5) ms. The “maximum mean (90% CI) placebo-corrected increase in QTcF interval from baseline (ΔΔQTcF)” value (humans; 240 mg pitolisant hydrochloride, SAD study) was 9.9 (4.7, 15.1) ms and the Cmax (humans; 240 mg) was 0.282 ± 0.047 µg/mL.
